Experimental data from US20220095618A1, “HERBICIDAL COMPOSITIONS” (SYNGENTA CROP PROTECTION AG, priority 2019, published 2022).

What was measured:
Assay in all cases: Post-emergence efficacy of compounds of Formula (I) (B1), glasshouse
Assay type in all cases: in vivo
[1] = system: Amaranthus palmeri (AMAPA); conditions: Application Rate 500 g/Ha, evaluated after 13 days; for pest or weed control at 500 g/ha: Amaranthus palmeri, post-emergence, 312 h, read-out: Control of AMAPA after post-emergence application (100=total damage to plant; 0=no damage to plant)
Description: (§1) Seeds of a variety of test species were sown in standard Iaom-based soil in pots:— Ipomoea hederacea (IPOHE), Euphorbia heterophylla (EPHHL), Chenopodium album (CHEAL), Amaranthus palmeri (AMAPA), Lolium perenne (LOLPE), Digitaria sanguinalis (DIGSA), Eleusine indica (ELEIN), Echinochloa crus-galli (ECHCG), Setaria faberi (SETFA). After cultivation for 14 days (post-emergence) under controlled conditions in a glasshouse (at 24/16° C., day/night; 14 hours light; 65% humidity), the plants were sprayed with an aqueous spray solution derived from the dissolution of the technical active ingredient Formula (I) in a small amount of acetone and a special solvent and emulsifier mixture referred to as IF50 (11.12% Emulsogen EL360 TM+44.44% N-methylpyrrolidone+44.44% Dowanol DPM glycol ether), to create a 50 g/I solution which was then diluted to required concentration using 0.25% or 1% Empicol ESC70 (Sodium lauryl ether sulphate)+1% ammonium sulphate as diluent. The delivery of the aqueous spray solution was via a laboratory track sprayer which delivered the aqueous spray composition at a rate of 200 litres per hectare, using a flat fan nozzle (Teejet 11002VS) and an application volume of 200 litre/ha (at 2 bar).
(§2) The test plants were then grown in a glasshouse under controlled conditions (at 24/16° C., day/night; 14 hours light; 65% humidity) and watered twice daily. After 13 days the test was evaluated (100=total damage to plant; 0=no damage to plant).

[2] = system: Digitaria sanguinalis (DIGSA); conditions: Application Rate 500 g/Ha, evaluated after 13 days; for pest or weed control at 500 g/ha: Digitaria sanguinalis, post-emergence, 312 h, read-out: Control of DIGSA after post-emergence application (100=total damage to plant; 0=no damage to plant)
Description: as §1, §2

[3] = system: Lolium perenne (LOLPE); conditions: Application Rate 500 g/Ha, evaluated after 13 days; for pest or weed control at 500 g/ha: Lolium perenne, post-emergence, 312 h, read-out: Control of LOLPE after post-emergence application (100=total damage to plant; 0=no damage to plant)
Description: as §1, §2

[4] = system: Ipomoea hederacea (IPOHE); conditions: Application Rate 500 g/Ha, evaluated after 13 days; for pest or weed control at 500 g/ha: Ipomoea hederacea, post-emergence, 312 h, read-out: Control of IPOHE after post-emergence application (100=total damage to plant; 0=no damage to plant)
Description: as §1, §2

[5] = system: Eleusine indica (ELEIN); conditions: Application Rate 500 g/Ha, evaluated after 13 days; for pest or weed control at 500 g/ha: Eleusine indica, post-emergence, 312 h, read-out: Control of ELEIN after post-emergence application (100=total damage to plant; 0=no damage to plant)
Description: as §1, §2

[6] = system: Chenopodium album (CHEAL); conditions: Application Rate 500 g/Ha, evaluated after 13 days; for pest or weed control at 500 g/ha: Chenopodium album, post-emergence, 312 h, read-out: Control of CHEAL after post-emergence application (100=total damage to plant; 0=no damage to plant)
Description: as §1, §2

[7] = system: Setaria faberi (SETFA); conditions: Application Rate 500 g/Ha, evaluated after 13 days; for pest or weed control at 500 g/ha: Setaria faberi, post-emergence, 312 h, read-out: Control of SETFA after post-emergence application (100=total damage to plant; 0=no damage to plant)
Description: as §1, §2

[8] = system: Euphorbia heterophylla (EPHHL); conditions: Application Rate 500 g/Ha, evaluated after 13 days; for pest or weed control at 500 g/ha: Euphorbia heterophylla, post-emergence, 312 h, read-out: Control of EPHHL after post-emergence application (100=total damage to plant; 0=no damage to plant)
Description: as §1, §2

[9] = system: Echinochloa crus-galli (ECHCG); conditions: Application Rate 500 g/Ha, evaluated after 13 days; for pest or weed control at 500 g/ha: Echinochloa crus-galli, post-emergence, 312 h, read-out: Control of ECHCG after post-emergence application (100=total damage to plant; 0=no damage to plant)
Description: as §1, §2

Row | Compound | pest or weed control at 500 g/ha [1] [%] | pest or weed control at 500 g/ha [2] [%] | pest or weed control at 500 g/ha [3] [%] | pest or weed control at 500 g/ha [4] [%] | pest or weed control at 500 g/ha [5] [%] | pest or weed control at 500 g/ha [6] [%] | pest or weed control at 500 g/ha [7] [%] | pest or weed control at 500 g/ha [8] [%] | pest or weed control at 500 g/ha [9] [%] | Control of AMAPA after post-emergence application (100=total damage to plant; 0=no damage to plant) [1] | Control of DIGSA after post-emergence application (100=total damage to plant; 0=no damage to plant) [2] | Control of LOLPE after post-emergence application (100=total damage to plant; 0=no damage to plant) [3] | Control of IPOHE after post-emergence application (100=total damage to plant; 0=no damage to plant) [4] | Control of ELEIN after post-emergence application (100=total damage to plant; 0=no damage to plant) [5] | Control of CHEAL after post-emergence application (100=total damage to plant; 0=no damage to plant) [6] | Control of SETFA after post-emergence application (100=total damage to plant; 0=no damage to plant) [7] | Control of EPHHL after post-emergence application (100=total damage to plant; 0=no damage to plant) [8] | Control of ECHCG after post-emergence application (100=total damage to plant; 0=no damage to plant) [9]
1 | N[C@@H](CCC[n+]1ccc(-c2ncccn2)cn1)C(=O)O [Compound 1.030, [(1S)-1-carboxy-4-(4-pyrimidin-2-ylpyridazin-1-ium-1-yl)butyl]-ammonium dichloride] | 100 | 100 | 60 | 60 | 90 | 100 | 100 | 100 | 100 | – | – | – | – | – | – | – | – | –
2 | O=S(=O)([O-])CCC[n+]1ccc(-c2ncccn2)cn1 [Compound 1.003, 3-(4-pyrimidin-2-ylpyridazin-1-ium-1-yl)propane-1-sulfonate] | 100 | 100 | 60 | 60 | 100 | 100 | 100 | 100 | 80 | – | – | – | – | – | – | – | – | –
3 | O=S(=O)(O)CC[n+]1ccc(-c2cnccn2)cn1 [Compound 1.004] | 100 | 100 | 60 | 60 | 100 | 100 | 90 | 100 | 80 | – | – | – | – | – | – | – | – | –
4 | CC(C)(C[n+]1ccc(-c2ncccn2)cn1)C(=O)O [Compound 1.022] | 100 | 100 | 60 | 100 | 100 | 80 | 100 | 100 | 90 | – | – | – | – | – | – | – | – | –
5 | N#C[N-]C(=O)CC[n+]1ccc(-c2ncccn2)cn1 [Compound 1.033] | 100 | 100 | 90 | 50 | 100 | 100 | 90 | 100 | 90 | – | – | – | – | – | – | – | – | –
6 | O=C(CC[n+]1ccc(-c2ncccn2)cn1)Oc1ccccc1 [Compound 1.020] | 100 | 100 | 80 | 30 | 100 | 80 | 100 | 80 | 90 | – | – | – | – | – | – | – | – | –
7 | O=C(O)CC[n+]1ccc(-c2cnccn2)cn1.[Cl-] [Compound 1.012, 3-(4-pyrazin-2-ylpyridazin-1-ium-1-yl)propanoic acid chloride] | – | – | – | – | – | – | – | – | – | 100 | 100 | 50 | 20 | 90 | 100 | 90 | 100 | 90
8 | COC(=O)CC[n+]1ccc(-c2cnccn2)cn1 [Compound 1.013, methyl 3-(4-pyrazin-2-ylpyridazin-1-ium-1-yl)propanoate chloride] | 100 | 100 | 70 | 80 | 100 | 90 | 100 | 100 | 80 | – | – | – | – | – | – | – | – | –
9 | N[C@H](CC[n+]1ccc(-c2ncccn2)cn1)C(=O)O [Compound 1.029, [(1R)-1-carboxy-3-(4-pyrimidin-2-ylpyridazin-1-ium-1-yl)propyl]-ammonium 2,2,2-trifluoroacetate] | 100 | 90 | 20 | 90 | 100 | 100 | 100 | 90 | 60 | – | – | – | – | – | – | – | – | –
10 | O=S(=O)([O-])CC[n+]1ccc(-c2ccnnc2)cn1 [Compound 1.006, 2-(4-pyridazin-4-ylpyridazin-1-ium-1-yl)ethanesulfonate] | 100 | 80 | 80 | 100 | 100 | 100 | 30 | 100 | 60 | – | – | – | – | – | – | – | – | –
11 | CC(C[n+]1ccc(-c2ncccn2)cn1)C(=O)O (stereo not drawn) [Compound 1.024] | 100 | 90 | 80 | 40 | 100 | 90 | 100 | 100 | 100 | – | – | – | – | – | – | – | – | –
12 | O=S(=O)([O-])CC[n+]1ccc(-c2cccnn2)cn1 [Compound 1.002, 2-(4-pyridazin-3-ylpyridazin-1-ium-1-yl)ethanesulfonate] | – | – | – | – | – | – | – | – | – | 100 | 100 | 100 | 40 | 100 | 100 | 90 | 100 | 100
13 | Cl.O=S(=O)([O-])CC[n+]1ccc(-c2cccnn2)cn1 [Compound 1.031, 2-(4-pyridazin-1-ium-3-ylpyridazin-1-ium-1-yl)ethanesulfonate chloride] | 100 | 100 | 90 | – | 100 | 90 | 100 | 100 | 100 | – | – | – | 70 | – | – | – | – | –
14 | CC(C)(CC(=O)O)[n+]1ccc(-c2ncccn2)cn1 [Compound 1.025, 3-methyl-3-(4-pyrimidin-2-ylpyridazin-1-ium-1-yl)butanoic acid 2,2,2-trifluoroacetate] | 100 | 90 | 30 | 50 | 100 | 70 | 100 | 40 | 100 | – | – | – | – | – | – | – | – | –
